Several values for one entry are separate records, joined by “and”; a condition that tells them apart may be missing. Identical values can stand only once.
Molecular target: T1, human TAS2R4 (Homo sapiens, UniProt Q9NYW5)
T1 construct: expressed in transfected cells; host or cells: HEK293T-Gα16gust44
T1 sequence (Q9NYW5 1-299): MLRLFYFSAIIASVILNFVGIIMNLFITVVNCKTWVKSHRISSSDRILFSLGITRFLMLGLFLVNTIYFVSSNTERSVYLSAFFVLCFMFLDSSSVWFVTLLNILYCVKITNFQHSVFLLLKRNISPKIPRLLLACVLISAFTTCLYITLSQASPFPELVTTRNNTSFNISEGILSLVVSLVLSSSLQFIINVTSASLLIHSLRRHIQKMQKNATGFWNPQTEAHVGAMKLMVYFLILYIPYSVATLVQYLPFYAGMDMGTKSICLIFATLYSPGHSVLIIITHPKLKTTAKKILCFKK
Assay: Calcium imaging assay (FLIPR), HEK293T-Gα16gust44 cells transfected with human TAS2R4
Type: cell-based
Outline: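 Read-out is Fluo-4 fluorescence change (ΔF/F) after automated application of bile acids (DMSO stocks) to transiently transfected cells. Values are corrected for empty-vector cells and normalized to buffer. Dose-response from three independent experiments in duplicate; threshold concentration set at p < 0.01 versus mock.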

Efficacy = maximal amplitude (ΔF/F) (TAS2R4, bile acids, mean): 0.07236
Efficacy (maximal amplitude ΔF/F), individual data points (TAS2R4, bile acids, single replicates, listed as UDCA): 0.07954 and 0.05089 and 0.08665
Δ F/F (TAS2R4, conc. 0,01 mM): 0.05163
Δ F/F (TAS2R4, conc. 0,03 mM): 0.07236
Δ F/F (TAS2R4, conc. 0,00003 mM): 0.00102
Δ F/F (TAS2R4, conc. 0,0001 mM): 0.006537
Δ F/F (TAS2R4, conc. 0,0003 mM): -0.0004307
Δ F/F (TAS2R4, conc. 0,001 mM): 0.008217
Δ F/F (TAS2R4, conc. 0,003 mM): 0.01726
RLU, fluorescence trace (Time (s) 0): 0 RLU
RLU, fluorescence trace (Time (s) 2): -16.0588 RLU
RLU, fluorescence trace (Time (s) 4): 1.8572 RLU
RLU, fluorescence trace (Time (s) 6): -24.0432 RLU
RLU, fluorescence trace (Time (s) 8): -15.0627 RLU
RLU, fluorescence trace (Time (s) 12): -11.1029 RLU
RLU, fluorescence trace (Time (s) 14): -16.031 RLU
RLU, fluorescence trace (Time (s) 16): -22.0279 RLU
RLU, fluorescence trace (Time (s) 18): -16.0557 RLU
RLU, fluorescence trace (Time (s) 18.766 (TCA, TLCA: 18.782)): -31 RLU
RLU, fluorescence trace (Time (s) 20.781 (TCA, TLCA: 20.782)): -77.5296 RLU
RLU, fluorescence trace (Time (s) 22.781 (TCA, TLCA: 22.782)): -20.8274 RLU
RLU, fluorescence trace (Time (s) 24.781 (TCA, TLCA: 24.782)): 13.5346 RLU
RLU, fluorescence trace (Time (s) 26.781 (TCA, TLCA: 26.782)): 47.9642 RLU
RLU, fluorescence trace (Time (s) 28.781 (TCA, TLCA: 28.782)): 73.9776 RLU
RLU, fluorescence trace (Time (s) 30.781 (TCA, TLCA: 30.782)): 141.824 RLU
RLU, fluorescence trace (Time (s) 32.781 (TCA, TLCA: 32.782)): 170.961 RLU
RLU, fluorescence trace (Time (s) 34.781 (TCA, TLCA: 34.782)): 211.304 RLU
RLU, fluorescence trace (Time (s) 36.781 (TCA, TLCA: 36.782)): 286.431 RLU
RLU, fluorescence trace (Time (s) 38.781 (TCA, TLCA: 38.782)): 316.3 RLU
RLU, fluorescence trace (Time (s) 40.781 (TCA, TLCA: 40.782)): 327.594 RLU
RLU, fluorescence trace (Time (s) 42.781 (TCA, TLCA: 42.782)): 352.031 RLU
RLU, fluorescence trace (Time (s) 44.781 (TCA, TLCA: 44.782)): 380.127 RLU
RLU, fluorescence trace (Time (s) 46.781 (TCA, TLCA: 46.782)): 405.893 RLU
RLU, fluorescence trace (Time (s) 48.781 (TCA, TLCA: 48.782)): 396.948 RLU
RLU, fluorescence trace (Time (s) 50.781 (TCA, TLCA: 50.782)): 411.019 RLU
RLU, fluorescence trace (Time (s) 52.781 (TCA, TLCA: 52.782)): 398.089 RLU
RLU, fluorescence trace (Time (s) 54.781 (TCA, TLCA: 54.782)): 413.206 RLU
RLU, fluorescence trace (Time (s) 56.781 (TCA, TLCA: 56.782)): 434.735 RLU
RLU, fluorescence trace (Time (s) 58.781 (TCA, TLCA: 58.782)): 418.956 RLU
RLU, fluorescence trace (Time (s) 60.781 (TCA, TLCA: 60.782)): 389 RLU
RLU, fluorescence trace (Time (s) 62.781 (TCA, TLCA: 62.782)): 407.272 RLU
RLU, fluorescence trace (Time (s) 64.781 (TCA, TLCA: 64.782)): 410.187 RLU
RLU, fluorescence trace (Time (s) 66.781 (TCA, TLCA: 66.782)): 395 RLU
RLU, fluorescence trace (Time (s) 68.781 (TCA, TLCA: 68.782)): 396.708 RLU
RLU, fluorescence trace (Time (s) 70.781 (TCA, TLCA: 70.782)): 394.232 RLU
RLU, fluorescence trace (Time (s) 72.781 (TCA, TLCA: 72.782)): 389.174 RLU
RLU, fluorescence trace (Time (s) 74.781 (TCA, TLCA: 74.782)): 367.247 RLU
RLU, fluorescence trace (Time (s) 76.781 (TCA, TLCA: 76.782)): 368.083 RLU
RLU, fluorescence trace (Time (s) 78.781 (TCA, TLCA: 78.782)): 368.91 RLU
RLU, fluorescence trace (Time (s) 80.781 (TCA, TLCA: 80.782)): 354 RLU
RLU, fluorescence trace (Time (s) 82.781 (TCA, TLCA: 82.782)): 345.234 RLU
RLU, fluorescence trace (Time (s) 84.781 (TCA, TLCA: 84.782)): 349.472 RLU
RLU, fluorescence trace (Time (s) 86.781 (TCA, TLCA: 86.782)): 337.61 RLU
RLU, fluorescence trace (Time (s) 88.781 (TCA, TLCA: 88.782)): 322.366 RLU
RLU, fluorescence trace (Time (s) 90.781 (TCA, TLCA: 90.782)): 310.929 RLU
RLU, fluorescence trace (Time (s) 92.781 (TCA, TLCA: 92.782)): 320.728 RLU
RLU, fluorescence trace (Time (s) 94.781 (TCA, TLCA: 94.782)): 299.044 RLU
RLU, fluorescence trace (Time (s) 96.781 (TCA, TLCA: 96.782)): 305.557 RLU
RLU, fluorescence trace (Time (s) 98.781 (TCA, TLCA: 98.782)): 298.819 RLU
RLU, fluorescence trace (Time (s) 100.781 (TCA, TLCA: 100.782)): 293.739 RLU
RLU, fluorescence trace (Time (s) 102.781 (TCA, TLCA: 102.782)): 282.259 RLU
RLU, fluorescence trace (Time (s) 104.781 (TCA, TLCA: 104.782)): 266.754 RLU
RLU, fluorescence trace (Time (s) 106.781 (TCA, TLCA: 106.782)): 276.382 RLU
RLU, fluorescence trace (Time (s) 108.781 (TCA, TLCA: 108.782)): 259.159 RLU
RLU, fluorescence trace (Time (s) 110.781 (TCA, TLCA: 110.782)): 276.445 RLU
RLU, fluorescence trace (Time (s) 112.781 (TCA, TLCA: 112.782)): 267.37 RLU
RLU, fluorescence trace (Time (s) 114.781 (TCA, TLCA: 114.782)): 253.353 RLU
RLU, fluorescence trace (Time (s) 116.781 (TCA, TLCA: 116.782)): 251.234 RLU
RLU, fluorescence trace (Time (s) 118.781 (TCA, TLCA: 118.782)): 253.766 RLU
RLU, fluorescence trace (Time (s) 120.781 (TCA, TLCA: 120.782)): 230.621 RLU
RLU, fluorescence trace (Time (s) 122.781 (TCA, TLCA: 122.782)): 238.721 RLU
RLU, fluorescence trace (Time (s) 124.781 (TCA, TLCA: 124.782)): 218.638 RLU
RLU, fluorescence trace (Time (s) 126.781 (TCA, TLCA: 126.782)): 215.286 RLU
RLU, fluorescence trace (Time (s) 128.781 (TCA, TLCA: 128.782)): 226.16 RLU
RLU, fluorescence trace (Time (s) 130.781 (TCA, TLCA: 130.782)): 229.593 RLU
RLU, fluorescence trace (Time (s) 132.781 (TCA, TLCA: 132.782)): 216.307 RLU
RLU, fluorescence trace (Time (s) 134.781 (TCA, TLCA: 134.782)): 209.298 RLU
RLU, fluorescence trace (Time (s) 136.781 (TCA, TLCA: 136.782)): 214.712 RLU
RLU, fluorescence trace (Time (s) 137.547): 211.548 RLU
RLU, fluorescence trace (Time (s) 143.547): 195.123 RLU
RLU, fluorescence trace (Time (s) 149.547): 191.876 RLU
RLU, fluorescence trace (Time (s) 155.547): 182.53 RLU
RLU, fluorescence trace (Time (s) 161.547): 172.093 RLU
RLU, fluorescence trace (Time (s) 167.547): 173.823 RLU
RLU, fluorescence trace (Time (s) 173.547): 178.999 RLU
RLU, fluorescence trace (Time (s) 179.547): 149.456 RLU
RLU, fluorescence trace (Time (s) 185.547): 128.186 RLU
RLU, fluorescence trace (Time (s) 191.547): 150.92 RLU
RLU, fluorescence trace (Time (s) 197.547): 155.041 RLU
RLU, fluorescence trace (Time (s) 203.547): 152.046 RLU
RLU, fluorescence trace (Time (s) 209.547): 155.822 RLU
RLU, fluorescence trace (Time (s) 215.547): 146.722 RLU
RLU, fluorescence trace (Time (s) 221.547): 144.396 RLU
RLU, fluorescence trace (Time (s) 227.547): 187.605 RLU
RLU, fluorescence trace (Time (s) 233.547): 160.672 RLU
RLU, fluorescence trace (Time (s) 239.547): 166.203 RLU
RLU, fluorescence trace (Time (s) 245.547): 147.048 RLU
RLU, fluorescence trace (Time (s) 293.547): 162.322 RLU
RLU, fluorescence trace (Time (s) 299.547): 130.446 RLU
RLU, fluorescence trace (Time (s) 305.547): 132.691 RLU
RLU, fluorescence trace (Time (s) 311.547): 138.907 RLU
RLU, fluorescence trace (Time (s) 317.547): 111.452 RLU
RLU, fluorescence trace (Time (s) 323.547): 135.942 RLU
RLU, fluorescence trace (Time (s) 329.547): 131.935 RLU
RLU, fluorescence trace (Time (s) 335.547): 149.888 RLU
RLU, fluorescence trace (Time (s) 341.547): 132.356 RLU
RLU, fluorescence trace (Time (s) 347.547): 117.981 RLU
RLU, fluorescence trace (Time (s) 353.547): 135.981 RLU
RLU, fluorescence trace (Time (s) 359.547): 144.823 RLU
Activation threshold concentration TAS2R4 (lowest concentration with significantly increased fluorescence vs empty vector (p < 0.01)): 3 µM
Structure (SMILES): C[C@H](CCC(=O)O)[C@H]1CC[C@H]2[C@@H]3[C@@H](O)C[C@@H]4C[C@H](O)CC[C@]4(C)[C@H]3CC[C@]12C [Ursodeoxycholic Acid, ursodeoxycholic acid]

Reference: publication PMC10247784, “Physiological activation of human and mouse bitter taste receptors by bile acids” (Communications Biology, 2023)
